According to US20160355465A1, “NOVEL MODIFIED CURCUMINS AND THEIR USES” (THE RESEARCH FOUNDATION OF STATE UNIVERSITY OF NEW YORK, priority 2011, published 2016):
Read-outs that look alike come from different tables or passages of the source.

Experiments:
MMP-2 = biological target: T1, MMP-2 (Homo sapiens, UniProt P08253); assay: fluorimetric assay of MMP activity; format: biochemical
T1 sequence (P08253 110-660): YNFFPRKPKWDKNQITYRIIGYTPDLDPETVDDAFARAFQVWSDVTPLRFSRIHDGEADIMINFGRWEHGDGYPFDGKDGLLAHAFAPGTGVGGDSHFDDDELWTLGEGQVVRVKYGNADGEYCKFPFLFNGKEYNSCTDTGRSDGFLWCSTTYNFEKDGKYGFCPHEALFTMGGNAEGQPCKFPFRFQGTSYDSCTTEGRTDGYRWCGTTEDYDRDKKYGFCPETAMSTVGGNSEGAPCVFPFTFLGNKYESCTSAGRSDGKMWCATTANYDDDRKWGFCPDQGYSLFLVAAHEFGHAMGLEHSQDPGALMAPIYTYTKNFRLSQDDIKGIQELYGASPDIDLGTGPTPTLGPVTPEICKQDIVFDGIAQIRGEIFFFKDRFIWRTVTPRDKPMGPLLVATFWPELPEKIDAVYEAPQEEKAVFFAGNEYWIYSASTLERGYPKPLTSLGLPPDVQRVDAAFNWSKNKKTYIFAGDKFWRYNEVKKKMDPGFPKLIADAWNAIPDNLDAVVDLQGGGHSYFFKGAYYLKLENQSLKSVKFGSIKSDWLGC

MMP-1 = biological target: T2, MMP-1 (Homo sapiens, UniProt P03956); assay: fluorimetric assay of MMP activity; format: biochemical; settings: synthetic fluorescent peptide substrate Mca-Lys-Pro-Leu-Gly-Leu-Dpa-Ala-Arg-NH2
T2 sequence (P03956 100-469): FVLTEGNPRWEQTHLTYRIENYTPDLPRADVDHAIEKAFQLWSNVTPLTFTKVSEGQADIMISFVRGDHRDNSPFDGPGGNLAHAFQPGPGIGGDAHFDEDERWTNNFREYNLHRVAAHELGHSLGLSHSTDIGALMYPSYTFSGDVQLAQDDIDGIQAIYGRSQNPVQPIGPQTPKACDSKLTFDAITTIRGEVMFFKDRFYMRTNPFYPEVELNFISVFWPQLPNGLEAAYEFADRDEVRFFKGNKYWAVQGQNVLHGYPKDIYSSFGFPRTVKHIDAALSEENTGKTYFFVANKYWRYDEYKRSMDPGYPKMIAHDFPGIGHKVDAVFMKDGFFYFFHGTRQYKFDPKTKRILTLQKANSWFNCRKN

MMP-13 = MMP-13 (Homo sapiens, UniProt P45452); assay: fluorimetric assay of MMP activity; format: biochemical; settings: synthetic fluorescent peptide substrate Mca-Lys-Pro-Leu-Gly-Leu-Dpa-Ala-Arg-NH2
MMP-7 = biological target: T3, MMP-7 (Homo sapiens, UniProt P09237); assay: fluorimetric assay of MMP activity; format: biochemical; settings: synthetic fluorescent peptide substrate Mca-Lys-Pro-Leu-Gly-Leu-Dpa-Ala-Arg-NH2
T3 sequence (P09237 95-267): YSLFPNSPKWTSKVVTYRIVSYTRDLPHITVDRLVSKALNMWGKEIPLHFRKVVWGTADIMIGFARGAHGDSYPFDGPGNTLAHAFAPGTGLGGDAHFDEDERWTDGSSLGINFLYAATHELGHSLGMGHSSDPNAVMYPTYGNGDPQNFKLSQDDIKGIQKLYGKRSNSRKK

MMP-14 = MMP-14 (Homo sapiens, UniProt P50281); assay: fluorimetric assay of MMP activity; format: biochemical; settings: synthetic fluorescent peptide substrate Mca-Lys-Pro-Leu-Gly-Leu-Dpa-Ala-Arg-NH2
MMP-8 = MMP-8 (Homo sapiens, UniProt P22894); assay: fluorimetric assay of MMP activity; format: biochemical; settings: synthetic fluorescent peptide substrate Mca-Lys-Pro-Leu-Gly-Leu-Dpa-Ala-Arg-NH2
MMP-12 = MMP-12 (Homo sapiens, UniProt P39900); assay: fluorimetric assay of MMP activity; format: biochemical; settings: synthetic fluorescent peptide substrate Mca-Lys-Pro-Leu-Gly-Leu-Dpa-Ala-Arg-NH2
MMP-3 = MMP-3 (Homo sapiens, UniProt P08254); assay: fluorimetric assay of MMP activity; format: biochemical; settings: synthetic fluorescent peptide substrate Mca-Lys-Pro-Leu-Gly-Leu-Dpa-Ala-Arg-NH2
MMP-9 = MMP-9 (Homo sapiens, UniProt P14780); assay: fluorimetric assay of MMP activity; format: biochemical; settings: synthetic fluorescent peptide substrate Mca-Lys-Pro-Leu-Gly-Leu-Dpa-Ala-Arg-NH2
[1] = blood glucose of the rats of the collagen experiment; format: in vivo, rat; settings: diabetic rats
collagen in wound tissue = assay: collagen fractions (hydroxyproline) in wound tissue of diabetic rats; format: in vivo, rat; settings: wound tissue day 6
Description: Biochemical measurements were made on wound tissue 6 days after creating the standardized 6 mm diameter wounds in the various groups of rats including: (1) non-diabetic controls (NDC); (2) Diabetic (DM) rats treated topically with 0.25% curcumin; (3) DM treated with 1% curcumin; (4) DM treated with 0.25% Compound 4, and (5) DM rats treated with 1% Compound 4. The wound tissues from these five different groups were then hydrolyzed (after extraction; see below) to degrade the collagen to individual amino acids, and the amino acid unique to collagen, hydroxyproline, was measured by a commercial colorimetric assay. Prior to hydrolysis, the wound tissues were extracted (at 4° C. to maintain the triple-helical conformation of the collagen molecules) to obtain first the salt-soluble fraction, then the acid-soluble fraction, leaving the insoluble fraction.

[2] = toxicity / tolerability in diabetic rats; format: in vivo; settings: at elevated levels
Protocol: The following five experimental groups (n=3 rats per group) were established: Non-diabetic control rats (NDC) treated by daily application of white petrolatum jelly (“vehicle”) for 7 days, diabetic rats (D group) treated daily with vehicle alone; diabetics treated by daily topical application of either a 1% (D+1%) or a 3% (D+3%) suspension of Compound 4 in the vehicle; and diabetics treated systemically by daily oral intubation of a 1 ml suspension of Compound 4 (in carboxymethylcellulose) at a dose of 30 mg/kg over the 7-day treatment protocol (D+30 mg/kg). At the end of this time period, the circular wounds were clinically assessed by measuring diameter of the wound in millimeters, blood samples were collected, the rats were sacrificed, and skin samples collected for histological/histochemical, and biochemical assessment as described below. • 1) On day 7 after inducing wound healing, the animals were anesthetized and blood samples collected for blood glucose (one Touch Ultra Glucometer; Johnson & Johnson, New Brunswick, N.J.) and Hemoglobin A1c (A1c Now+; Bayer Health Care, Sunnyvale, Calif.) measurements. • 2) Photographs were taken for clinical observations to assess wound closure. The % reduction of the wound surface was calculated by measuring the diameter (in millimeters) of each wound before and after the treatment protocol. • 3) Wound tissues on day 7 were excised from 3 sites per rat and pooled for biochemical analysis. […] The supernates were then dialyzed against the Tris-HCl, NaCl, CaCl2 buffer, and the proteinases partially purified by ammonium sulfate precipitation and examined for levels of MMP-2 (72 kD gelatinse) and MMP-9 (92 kD gelatinase) by gelatin zymography using denatured type I collagen (gelatin) as the substrate (6). • 4) The remaining wounds were assessed histologically & histochemically by Dr. Steve McClain (McClain Labs, Smithtown, N.Y.) as follows: Biopsies of each wound site were taken and included both the wound tissue and surrounding non-wounded tissue. […]

[3] = test system: MMPs 1, 2, 3, 7, 8, 9, 12, 13 and 14; assay: activity against a battery of MMPs (summary in words); format: biochemical, human
[4] = synthetic fluorescent peptide substrate Mca-Lys-Pro-Leu-Gly-Leu-Dpa-Ala-Arg-NH2, read-out: IC50 MMP-2

Chain of MMP-12 (P39900 106-470): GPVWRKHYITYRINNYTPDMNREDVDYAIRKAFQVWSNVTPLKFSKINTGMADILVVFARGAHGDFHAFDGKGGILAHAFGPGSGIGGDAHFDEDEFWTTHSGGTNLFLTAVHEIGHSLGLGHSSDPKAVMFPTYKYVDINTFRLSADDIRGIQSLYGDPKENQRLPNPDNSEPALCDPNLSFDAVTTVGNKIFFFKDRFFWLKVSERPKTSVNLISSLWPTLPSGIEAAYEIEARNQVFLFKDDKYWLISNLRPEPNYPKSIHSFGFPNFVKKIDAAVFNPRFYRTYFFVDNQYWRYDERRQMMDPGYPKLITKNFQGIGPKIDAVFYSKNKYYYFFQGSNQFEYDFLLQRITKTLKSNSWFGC
Chain of MMP-8 (P22894 101-467): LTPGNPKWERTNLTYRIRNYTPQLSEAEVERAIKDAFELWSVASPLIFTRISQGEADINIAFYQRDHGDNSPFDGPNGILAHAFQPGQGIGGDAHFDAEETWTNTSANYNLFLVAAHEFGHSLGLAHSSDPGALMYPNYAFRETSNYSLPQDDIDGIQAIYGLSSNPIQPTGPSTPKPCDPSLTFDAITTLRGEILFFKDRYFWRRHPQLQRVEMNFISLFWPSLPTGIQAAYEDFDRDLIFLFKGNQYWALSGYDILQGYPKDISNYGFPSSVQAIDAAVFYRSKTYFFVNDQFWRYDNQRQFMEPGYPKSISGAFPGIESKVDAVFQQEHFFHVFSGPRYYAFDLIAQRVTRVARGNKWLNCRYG
Chain of MMP-3 (P08254 100-477): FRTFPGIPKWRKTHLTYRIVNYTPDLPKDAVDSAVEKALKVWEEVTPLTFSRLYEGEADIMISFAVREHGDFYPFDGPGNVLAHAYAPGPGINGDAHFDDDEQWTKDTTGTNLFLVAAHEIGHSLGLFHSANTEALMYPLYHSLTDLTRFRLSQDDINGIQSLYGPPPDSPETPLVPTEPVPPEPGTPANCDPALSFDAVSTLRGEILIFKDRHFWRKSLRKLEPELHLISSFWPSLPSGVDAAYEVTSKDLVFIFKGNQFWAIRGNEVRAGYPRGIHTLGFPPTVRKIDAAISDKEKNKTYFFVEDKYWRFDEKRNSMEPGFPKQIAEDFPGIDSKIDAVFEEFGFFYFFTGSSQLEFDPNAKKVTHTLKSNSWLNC
Chain of MMP-9 (P14780 94-707): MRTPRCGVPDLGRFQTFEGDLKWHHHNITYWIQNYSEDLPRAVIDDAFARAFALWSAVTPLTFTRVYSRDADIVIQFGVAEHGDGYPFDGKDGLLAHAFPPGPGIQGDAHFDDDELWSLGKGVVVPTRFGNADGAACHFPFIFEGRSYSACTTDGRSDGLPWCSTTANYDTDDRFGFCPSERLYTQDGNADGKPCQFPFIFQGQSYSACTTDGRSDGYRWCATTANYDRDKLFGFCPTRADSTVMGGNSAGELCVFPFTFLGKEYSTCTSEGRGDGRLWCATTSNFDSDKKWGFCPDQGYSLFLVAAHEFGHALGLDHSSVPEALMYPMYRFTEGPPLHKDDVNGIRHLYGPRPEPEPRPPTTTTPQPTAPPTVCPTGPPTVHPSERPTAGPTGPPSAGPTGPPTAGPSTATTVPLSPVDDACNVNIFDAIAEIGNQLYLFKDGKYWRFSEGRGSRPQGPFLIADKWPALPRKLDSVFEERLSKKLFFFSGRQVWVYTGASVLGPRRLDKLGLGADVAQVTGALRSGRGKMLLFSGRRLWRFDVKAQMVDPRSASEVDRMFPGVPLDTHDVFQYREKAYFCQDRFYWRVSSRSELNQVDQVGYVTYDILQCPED

What does the source list for `c1cnc2c(c1)ccc1cccnc12` [1,10-Phen, 1,10-phenanthroline, reference compound]?
IC50 (MMP-2; [4]): 73.8 ± 1 µM; IC50 (MMP-1): 42 ± 1.1 µM; IC50 (MMP-13): 50 ± 10.4 µM; IC50 (MMP-7): 197 ± 8.8 µM; IC50 (MMP-14): 43.8 ± 4.2 µM; IC50 (MMP-8): 31.3 ± 0.5 µM; IC50 (MMP-12): 29.5 ± 1.3 µM; IC50 (MMP-3): 77 ± 3.2 µM; IC50 (MMP-9): 45 ± 12.6 µM

With `COc1cc(/C=C/C(=O)CC(=O)/C=C/c2ccc(O)c(OC)c2)ccc1O` [Compound 1, 1,7-Bis(4-hydroxy-3-methoxyphenyl)hepta-1E,6E-dien-3,5-dione, reference compound] as the compound, how does the IC50 (MMP-2) read?
Its IC50 is 5 ± 0.7 µM.

And the “Blood Glucose” value ([1]; 0.25% topical)?
The value was 569 mg/dL.

And the “Blood Glucose” value ([1]; 1% topical)?
Its value is 540 mg/dL.

What about the IC50 (MMP-7) of the same compound?
Its IC50 is 51.8 ± 2.5 µM.

What about the IC50 (MMP-14) of the same compound?
The IC50 was 29.5 ± 3.2 µM.

What about the IC50 (MMP-12) of the same compound?
The IC50 was 2.6 ± 0.2 µM.

What about the “Collagen Fractions (%) Acid-soluble” value (collagen in wound tissue; 0.25% topical) of the same compound?
The value was 48.3%.

And the “Collagen Fractions (%) Insoluble” value (collagen in wound tissue; 0.25% topical)?
Its value is 36.4%.

What about the “Collagen Fractions (%) Salt-soluble” value (collagen in wound tissue; 0.25% topical) of the same compound?
The value was 15.3%.

What about the “Collagen Fractions (%) Acid-soluble” value (collagen in wound tissue; 1% topical) of the same compound?
Its value is 50.9%.

What about the “Collagen Fractions (%) Insoluble” value (collagen in wound tissue; 1% topical) of the same compound?
Its value is 27.1%.

And the “Collagen Fractions (%) Salt-soluble” value (collagen in wound tissue; 1% topical)?
Its value is 22.0%.

What about the IC50 (MMP-3) of the same compound?
The IC50 was 4.7 ± 0.8 µM.

What about the IC50 (MMP-9) of the same compound?
Its IC50 is 30 ± 2.9 µM.

For `COC(=O)C(C(=O)/C=C/c1ccc(O)c(OC)c1)C(=O)/C=C/c1ccc(O)c(OC)c1` [Compound 2, 1,7-Bis(4-hydroxy-3-methoxyphenyl)-4-methoxycarbonylhepta-1E,6E-dien-3,5-dione], which IC50 (MMP-2; [4]) is on record?
The IC50 was 25.3 ± 1.3 µM.

And the IC50 (MMP-1)?
The IC50 was 74 ± 3.5 µM.

And the IC50 (MMP-7)?
Its IC50 is 48.8 ± 0.5 µM.

And the IC50 (MMP-14)?
The IC50 was 48.5 ± 4.3 µM.

What about the IC50 (MMP-8) of the same compound?
The IC50 was 30.8 ± 1.5 µM.

What about the IC50 (MMP-12) of the same compound?
The IC50 was 27.8 ± 1.7 µM.

What about the IC50 (MMP-3) of the same compound?
The IC50 was 32.5 ± 2.8 µM.

What about the IC50 (MMP-9) of the same compound?
Its IC50 is 55 ± 17.3 µM.

For `COc1cc(/C=C/C(=O)C(C(=O)/C=C/c2ccc(O)c(OC)c2)C(=O)Nc2ccccc2)ccc1O` [Compound 3, 1,7-Bis(4-hydroxy-3-methoxyphenyl)-4-N-phenylaminocarbonylhepta-1E, 6E-dien-3,5-dione], which IC50 (MMP-2; [4]) is on record?
The IC50 was 6.3 ± 0.9 µM.

And the toxicity [2]?
The toxicity was “some toxicity”.

And the IC50 (MMP-1)?
The IC50 was 68 ± 3.2 µM.

What about the IC50 (MMP-7) of the same compound?
Its IC50 is 21.5 ± 1 µM.

What about the IC50 (MMP-14) of the same compound?
Its IC50 is 41.3 ± 4.9 µM.

What about the IC50 (MMP-8) of the same compound?
The IC50 was 2.5 ± 0.3 µM.

What about the IC50 (MMP-12) of the same compound?
Its IC50 is 4.5 ± 0.5 µM.

What about the “anti-MMP activity (in words)” value [3] of the same compound?
Its value is “highly active”.

And the IC50 (MMP-3)?
Its IC50 is 5.3 ± 0.7 µM.

And the IC50 (MMP-9)?
Its IC50 is 8.7 ± 0.7 µM.

With `COC(=O)C(C(=O)/C=C/c1ccc(O)cc1)C(=O)/C=C/c1ccc(O)cc1` [Compound 5, 1,7-Bis(4-hydroxyphenyl)-4-methoxycarbonylhepta-1E,6E-dien-3,5-dione] as the compound, how does the IC50 (MMP-2; [4]) read?
Its IC50 is 23.8 ± 0.9 µM.

What about the IC50 (MMP-1) of the same compound?
Its IC50 is 76.3 ± 6.5 µM.

What about the IC50 (MMP-13) of the same compound?
The IC50 was 26.7 ± 1.7 µM.

What about the IC50 (MMP-7) of the same compound?
The IC50 was 57.5 ± 4.6 µM.

And the IC50 (MMP-14)?
Its IC50 is 40 ± 8.4 µM.

What about the IC50 (MMP-8) of the same compound?
The IC50 was 20 ± 2 µM.

And the IC50 (MMP-12)?
Its IC50 is 5.3 ± 0.3 µM.

And the IC50 (MMP-3)?
The IC50 was 28.3 ± 1 µM.

And the IC50 (MMP-9)?
Its IC50 is 43.3 ± 4.4 µM.
